# Key:
# Format in all cases: cell-based
# [1] = system: cisplatin resistant A2780 cells; experiment: SRB assay (48 h) on cisplatin-resistant A2780 cells; conditions: for IC50 / cisplatin resistant A2780 SRB Max. (maximal inhibition): cisplatin resistant A2780 cells, SRB, 48 h
# Experimental: 6 × 10^3 cisplatin-resistant A2780 cells were plated to 96 well plates. Cells were treated with the compounds in the concentrations indicated for either 4 h for an MTT assay or for 48 h for an SRB assay. Data is represented as average ± SD, from three biological replicates; individual assays were performed in duplicates. Values were normalized for vehicle treated cells, absorbance for vehicle treated cells equals to 1. Each compound was assessed individually. Normality was assessed using the Shapiro-Wilk test. […] Statistical significance was assessed using One-way ANOVA test comparing all points to the smallest concentration. For better visibility the p values are presented in an excel sheet at https://figshare.com/s/2c942a812caea8869a67. Non-linear regression was performed on the results of the SRB assay datasets.
# Cisplatin resistant cells underwent selection (1 µM cisplatin) once a week for 3 days before plating for any assay.
# (§1) The assay was performed similar to ([Kovács et al., 2019]). Cells were seeded in 96 well plates the day before the assay. Cells were treated with the compounds for 48 h. Cells were fixed with 10% trichloroacetic acid (TCA). Fixed cells were washed in distilled water 3 times followed by staining with SRB (0.4 m/V% dissolved in 1% acetic acid) for 10 min. Stained cells were washed in 1% acetic acid 5 times; acetic acid was removed and cells were left to dry. Protein-bound SRB was released by adding 100 µl 10 mM Tris base. Plates were measured in a plate photometer (Thermo Scientific Multiscan GO spectrophotometer, Waltham, MA, United States) at 540 nm. On each plate wells were designed to contain vehicle-treated cells. In calculations the readings for these wells was considered as 1 and all readings were expressed relative to these values.
# Statistical analysis was performed using 8.0.1 version of Graphpad Prism. Values were tested for normal distribution using the D’Agostino and Pearson normality test. When necessary, values were log normalized or were normalized using the Box-Cox normalization method ([Box and Cox, 1964]) as indicated in the figure captions.
# [2] = system: Capan2 pancreatic adenocarcinoma cells; experiment: SRB assay (48 h) on Capan2 cells
# Experimental: (§2) 3 × 10^3 Capan2 cells, 2 × 10^3 Saos cells and 8 × 10^3 L428 were plated to 96 well plates. Cells were treated with the compounds in the concentrations for 48 h. Then for Capan2 and Saos SRB assay was performed, L428 cells were counted using a Burker chamber. Data is represented as average ± SD, from three biological replicates; individual assays were performed in duplicates. Values were normalized for vehicle treated cells, absorbance for vehicle treated cells equals to 1. Normality was checked using the Shapiro-Wilk test. The Saos Os-7 dataset was normalized using the Box-Cox method, other datasets had normal distribution. Each complex was individually assessed for statistical significance using One-way ANOVA test followed by Dunnett’s post hoc test; all values were compared to the values of the lowest concentration. For better visibility the p values are presented in an excel sheet at https://figshare.com/s/2c942a812caea8869a67. Non-linear regression was performed on the Capan2 and Saos datasets.
# Capan2 cells were maintained in MEM, 10% fetal bovine serum, 1% Penicillin/Streptomycin, 2 mM Glutamine.
# as §1
# (§3) Statistical analysis was performed using 8.0.1 version of Graphpad Prism. Values were tested for normal distribution using the D’Agostino and Pearson normality test. When necessary, values were log normalized or were normalized using the Box-Cox normalization method ([Box and Cox, 1964]) as indicated in the figure captions. Non-linear regression was performed using the built-in “[Inhibitor] vs. response—Variable slope (four parameters), least square fit” utility of Graphpad that yielded IC50 and Hill slope values.
# Saos osteosarcoma cells = experiment: SRB assay (48 h) on Saos cells
# Experimental: as §2
# Saos cells were maintained in DMEM (4.5 g/L glucose) medium supplemented with 10% fetal calf serum, 2 mM glutamine, 1% penicillin-streptomycin.
# as §1, §3
# [3] = system: methicillin-resistant Staphylococcus aureus (MRSA) clinical isolates; experiment: Broth microdilution MIC, clinical MRSA isolates; conditions: for MIC against clinical MRSA isolates (as a group): 6 clinical MRSA isolates; for MIC, MRSA 20 426: clinical isolate 20 426, blood, 2020; for MIC, MRSA 24 035: clinical isolate 24 035, wound; for MIC, MRSA 24 035 / MIC, MRSA 24 268 / MIC, MRSA 24 272 / MIC, MRSA 24 328 / MIC, MRSA 24 408: 2018; for MIC, MRSA 24 268: clinical isolate 24 268, throat; for MIC, MRSA 24 272: clinical isolate 24 272, throat; for MIC, MRSA 24 328: clinical isolate 24 328, throat; for MIC, MRSA 24 408: clinical isolate 24 408, bronchial
# Experimental: The MIC values of the complexes were determined against the reference strains of S. aureus (ATCC29213) and E. faecalis. (ATCC29212) and against clinical VRE and MRSA isolates by microdilution assays (repeated at least twice in duplicates) as described in Materials and Methods. The numbers indicate how many isolates were susceptible to the compound out of those tested; i.e., 1/6 stands for 1 isolate was susceptible out of 6 tested. […] Cells were harvested and lysed. Cellular proteins was separated on a 10% SDS-PAGE gel and were blotted. Blots were probed with 4HNE antibody (top blot), the lower blot was stained with amido black. Arrows point at band of interest. Experiments were repeated three times and a representative blot is shown. On the blots brightness and contrast were adjusted. […] Each was matched to a substance and strain by its position over the x-axis categories. / Ir-7: ND and 0/3 (left plot) and ND and 0/6 (right plot) were matched to E. faecalis/VRE and S. aureus/MRSA by position only.
# We used a set of clinical isloates of S. aureus and E. faecium that were collected at the Medical Center of the University of Debrecen (Hungary) between 01. 01. 2018.—31. 12. 2020. The clinical isolates were identified using a Microflex MALDI-TOF mass spectrometer (Bruker, Billerica, MA, United States). Antibiotic susceptibility of the isolates was tested following the European Committee on Antimicrobial Susceptibility Testing ([EUCAST, 2021]) guidelines valid at the time of collection.
# Microdilution experiments were performed according to the standards of EUCAST ([EUCAST, 2021]). […] The inoculated plates were incubated for 24 h at 37°C then were assessed visually. […] All experiments were performed at least twice in duplicates.
SMILES,IC50 [1],cisplatin resistant A2780 SRB Max. (maximal inhibition) [1],Capan2 SRB Max. (maximal inhibition) [2],IC50 [2],IC50 (Saos osteosarcoma cells),SAOS SRB Max. (maximal inhibition) (Saos osteosarcoma cells),MIC against clinical MRSA isolates (as a group) [3],"MIC, MRSA 20 426 [3]","MIC, MRSA 24 035 [3]","MIC, MRSA 24 268 [3]","MIC, MRSA 24 272 [3]","MIC, MRSA 24 328 [3]","MIC, MRSA 24 408 [3]","fold change of IC50, cisplatin resistant vs cisplatin sensitive A2780 ([1]; SRB assays, resistant / sensitive A2780)","MRSA isolates susceptible out of those tested ([3]; 6 isolates tested, susceptible = MIC up to 40 µM)"
Cc1c(C)c(C)[c-](C)c1C.F[P-](F)(F)(F)(F)F.O=C(OCC1OC(n2cc(-c3ccc4ccccc4n3)nn2)C(OC(=O)c2ccccc2)C(OC(=O)c2ccccc2)C1OC(=O)c1ccccc1)c1ccccc1.[Cl][Ir+2] (mixture of isomers) [Ir-7],1540 nM,>90%,48.83%,1930 nM,1580 nM,33%,no activity,40< µM,40< µM,40< µM,40< µM,40< µM,40< µM,–,–
Cc1ccc(C(C)C)cc1.F[P-](F)(F)(F)(F)F.O=C(OCC1OC(n2cc(-c3ccc4ccccc4n3)nn2)C(OC(=O)c2ccccc2)C(OC(=O)c2ccccc2)C1OC(=O)c1ccccc1)c1ccccc1.[Cl][Os+] (mixture of isomers) [Os-7],476 nM,>90%,59.11%,1350 nM,1290 nM,48.04%,5 µM,40< µM,40< µM,40< µM,5 µM,40< µM,40< µM,technically unchanged,1 out of the 6
Cc1ccc(C(C)C)cc1.F[P-](F)(F)(F)(F)F.O=C(OCC1OC(n2cc(-c3ccc4ccccc4n3)nn2)C(OC(=O)c2ccccc2)C(OC(=O)c2ccccc2)C1OC(=O)c1ccccc1)c1ccccc1.[Cl][Ru+] (mixture of isomers) [Ru-7],1180 nM,>90%,39.80%,1390 nM,1180 nM,33.64%,5 to 40 µM,10 µM,40 µM,20 µM,5 µM,10 µM,10 µM,–,–
